Test results taken from patent EP0555116B1, “Compositions based on antiseptics and their applications” (HUTCHINSON, priority 1992, dated 1993).

What was measured:
[1] = test system: Candida albicans ATCC 1031; experiment: Growth inhibition test (DGHM, Essai 2, Tables A-C), 72 h at 37°C; non/A/B/C = without or with inactivating substances A, B, C; format: cell-based
Description: Un autre essai a été réalisé à partir des solutions suivantes : • 100 ml d'une solution à 0,1 % de digluconate de chlorhexidine (pH 6) et • 100 ml d'une solution à 0,1 % de Bardac 22®. […]
(§1) Les tests ont été réalisés conformément au protocole décrit dans le Chapitre I/2.1 et 2.2 de Richtlinien für die Prüfung und Bewertung chemischer Desinfektionsverfahren der DGHM, Stand 1.1., 1981).
Les Tableaux A, B et C illustrent respectivement l'activité bactéricide et fongicide d'une solution aqueuse à 0,1 % de digluconate de chlorhexidine, d'une solution aqueuse à 0,1 % de Bardac 22® et d'un mélange à part égale des deux composés. Les protocoles dont ces Tableaux illustrent les résultats comprennent une incubation de 72 heures à 37°C et l'utilisation, comme témoins, des substances inactivantes suivantes : A : Tween® 80 3 % + lécithine 0,3 % + cystéine 0,1 %; B : Tween® 80 3 % + saponine 3 % + cystéine 0,1 % + histidine 0,1 %; C : Tween® 80 3 % + lécithine 0,3 % + histidine 0,1 % + thiosulfate de sodium 0,5 %.
Dans ces Tableaux, le signe "+" indique une croissance et le signe "-" l'absence de croissance.

S. aureus ATCC 6538 = experiment: Disinfection time test (Essai 2, Tables D-F), reaction at 22°, subcultures 72 h at 37°C; format: cell-based, Staphylococcus aureus
Description: (§2) Un autre essai a été réalisé à partir des solutions suivantes : • 100 ml d'une solution à 0,1 % de digluconate de chlorhexidine (pH 6) et • 100 ml d'une solution à 0,1 % de Bardac 22®.
as §1
(§3) Les tests dont les résultats sont illustrés aux Tableaux D, E et F ont été réalisés à une température de réaction de 22° avec une incubation des sous-cultures 72 heures à 37°C avec comme substances inactivantes : Tween® 80 3 % + saponine 3 % + cystéine 0,1 % + histidine 0,1 %; ces Tableaux illustrent respectivement l'activité bactéricide et fongicide d'une solution aqueuse à 0,1 % de digluconate de chlorhexidine, d'une solution aqueuse à 0,1 % de Bardac 22® et d'un mélange à part égale des deux composés et montrent l'action des antiseptiques précités, en fonction du temps de contact, et font apparaître la même synergie d'action de l'association que ci-dessus, dans la mesure où l'association des deux composés permet de diminuer significativement leur concentration, pour l'obtention d'un même effet. TABLEAU D

[2] = test system: Candida albicans ATCC 1031; experiment: as above; format: cell-based
Description: as §2, §1, §3

In the case of `[H]/N=C(\N/C(=N/[H])NCCCCCCNC(=N)NC(=N)Nc1ccc(Cl)cc1)Nc1ccc(Cl)cc1` [Chlorhexidine, digluconate de chlorhexidine, reference compound], the croissance ([1]; Conc. 0,1 % (vol/vol), A) is reported as “+”, the croissance ([1]; Conc. 0,1 % (vol/vol), B) is reported as “+” and the croissance ([1]; Conc. 0,1 % (vol/vol), C) is reported as “+”. The croissance ([1]; Conc. 0,1 % (vol/vol), non) was “+”, the croissance ([1]; Conc. 0,05 % (vol/vol), A) was “+” and the croissance ([1]; Conc. 0,5 % (vol/vol), A) was “+”. For the same compound, the croissance ([1]; Conc. 0,05 % (vol/vol), B) was “+”, the croissance ([1]; Conc. 0,5 % (vol/vol), B) was “+” and the croissance ([1]; Conc. 0,05 % (vol/vol), C) was “+”. For the same compound, the croissance ([1]; Conc. 0,5 % (vol/vol), C) was “+”, the croissance ([1]; Conc. 0,05 % (vol/vol), non) was “+” and the croissance ([1]; Conc. 0,5 % (vol/vol), non) was “+”. The croissance ([1]; Conc. 1,0 % (vol/vol), A) was “+”, the croissance ([1]; Conc. 1,0 % (vol/vol), B) was “+” and the croissance ([1]; Conc. 1,0 % (vol/vol), C) was “+”. For the same compound, the croissance ([1]; Conc. 1,0 % (vol/vol), non) was “-”, the croissance ([1]; Conc. 0,00625 % (vol/vol), A) was “+” and the croissance ([1]; Conc. 0,00625 % (vol/vol), B) was “+”. For the same compound, the croissance ([1]; Conc. 0,00625 % (vol/vol), C) was “+”, the croissance ([1]; Conc. 0,00625 % (vol/vol), non) was “+” and the croissance ([1]; Conc. 0,0125 % (vol/vol), A) was “+”. The croissance ([1]; Conc. 0,0125 % (vol/vol), B) was “+”, the croissance ([1]; Conc. 0,0125 % (vol/vol), C) was “+” and the croissance ([1]; Conc. 0,0125 % (vol/vol), non) was “+”. For the same compound, the croissance ([1]; Conc. 0,025 % (vol/vol), A) was “+”, the croissance ([1]; Conc. 0,025 % (vol/vol), B) was “+” and the croissance ([1]; Conc. 0,025 % (vol/vol), C) was “+”. The croissance ([1]; Conc. 0,025 % (vol/vol), non) was “+”, the “concentration en substance active inhibant la croissance” value ([1]; antiseptique seul) was 0,001% and the croissance (S. aureus ATCC 6538; Conc. 0,1 % (vol/vol), 1 min) was “+”. For the same compound, the croissance (S. aureus ATCC 6538; Conc. 0,1 % (vol/vol), 3 min) was “+”, the croissance (S. aureus ATCC 6538; Conc. 0,1 % (vol/vol), 5 min) was “+” and the croissance (S. aureus ATCC 6538; Conc. 0,1 % (vol/vol), 15 min) was “+”. The croissance (S. aureus ATCC 6538; Conc. 0,1 % (vol/vol), 30 min) was “+”, the croissance (S. aureus ATCC 6538; Conc. 0,1 % (vol/vol), 60 min) was “+” and the croissance (S. aureus ATCC 6538; Conc. 0,05 % (vol/vol), 1 min) was “+”. For the same compound, the croissance (S. aureus ATCC 6538; Conc. 0,5 % (vol/vol), 1 min) was “+”, the croissance (S. aureus ATCC 6538; Conc. 0,05 % (vol/vol), 3 min) was “+” and the croissance (S. aureus ATCC 6538; Conc. 0,5 % (vol/vol), 3 min) was “+”. For the same compound, the croissance (S. aureus ATCC 6538; Conc. 0,05 % (vol/vol), 5 min) was “+”, the croissance (S. aureus ATCC 6538; Conc. 0,5 % (vol/vol), 5 min) was “+” and the croissance (S. aureus ATCC 6538; Conc. 0,05 % (vol/vol), 15 min) was “+”. For the same compound, the croissance (S. aureus ATCC 6538; Conc. 0,5 % (vol/vol), 15 min) was “+”, the croissance (S. aureus ATCC 6538; Conc. 0,05 % (vol/vol), 30 min) was “+” and the croissance (S. aureus ATCC 6538; Conc. 0,5 % (vol/vol), 30 min) was “+”. The croissance (S. aureus ATCC 6538; Conc. 0,05 % (vol/vol), 60 min) was “+”, the croissance (S. aureus ATCC 6538; Conc. 0,5 % (vol/vol), 60 min) was “+” and the croissance (S. aureus ATCC 6538; Conc. 1 % (vol/vol), 1 min) was “+”. The croissance (S. aureus ATCC 6538; Conc. 1 % (vol/vol), 3 min) was “+”, the croissance (S. aureus ATCC 6538; Conc. 1 % (vol/vol), 5 min) was “+” and the croissance (S. aureus ATCC 6538; Conc. 1 % (vol/vol), 15 min) was “+”. The croissance (S. aureus ATCC 6538; Conc. 1 % (vol/vol), 30 min) was “+”, the croissance (S. aureus ATCC 6538; Conc. 1 % (vol/vol), 60 min) was “+” and the croissance (S. aureus ATCC 6538; Conc. 5 % (vol/vol), 1 min) was “+”. The croissance (S. aureus ATCC 6538; Conc. 5 % (vol/vol), 3 min) was “+”, the croissance (S. aureus ATCC 6538; Conc. 5 % (vol/vol), 5 min) was “+” and the croissance (S. aureus ATCC 6538; Conc. 5 % (vol/vol), 15 min) was “+”. For the same compound, the croissance (S. aureus ATCC 6538; Conc. 5 % (vol/vol), 30 min) was “+”, the croissance (S. aureus ATCC 6538; Conc. 5 % (vol/vol), 60 min) was “+” and the croissance (S. aureus ATCC 6538; Conc. 10 % (vol/vol), 1 min) was “+”. For the same compound, the croissance (S. aureus ATCC 6538; Conc. 10 % (vol/vol), 3 min) was “+”, the croissance (S. aureus ATCC 6538; Conc. 10 % (vol/vol), 5 min) was “+” and the croissance (S. aureus ATCC 6538; Conc. 10 % (vol/vol), 15 min) was “+”. For the same compound, the croissance (S. aureus ATCC 6538; Conc. 10 % (vol/vol), 30 min) was “+”, the croissance (S. aureus ATCC 6538; Conc. 10 % (vol/vol), 60 min) was “-” and the croissance (S. aureus ATCC 6538; Conc. 25 % (vol/vol), 1 min) was “+”. For the same compound, the croissance (S. aureus ATCC 6538; Conc. 25 % (vol/vol), 3 min) was “+”, the croissance (S. aureus ATCC 6538; Conc. 25 % (vol/vol), 5 min) was “+” and the croissance (S. aureus ATCC 6538; Conc. 25 % (vol/vol), 15 min) was “+”. For the same compound, the croissance (S. aureus ATCC 6538; Conc. 25 % (vol/vol), 30 min) was “-”, the croissance (S. aureus ATCC 6538; Conc. 25 % (vol/vol), 60 min) was “-” and the croissance ([2]; Conc. 0,1 % (vol/vol), 1 min) was “+”. The croissance ([2]; Conc. 0,1 % (vol/vol), 3 min) was “+”, the croissance ([2]; Conc. 0,1 % (vol/vol), 5 min) was “+” and the croissance ([2]; Conc. 0,1 % (vol/vol), 15 min) was “+”. For the same compound, the croissance ([2]; Conc. 0,1 % (vol/vol), 30 min) was “+”, the croissance ([2]; Conc. 0,1 % (vol/vol), 60 min) was “+” and the croissance ([2]; Conc. 0,05 % (vol/vol), 1 min) was “+”. For the same compound, the croissance ([2]; Conc. 0,5 % (vol/vol), 1 min) was “+”, the croissance ([2]; Conc. 0,05 % (vol/vol), 3 min) was “+” and the croissance ([2]; Conc. 0,5 % (vol/vol), 3 min) was “+”. For the same compound, the croissance ([2]; Conc. 0,05 % (vol/vol), 5 min) was “+”, the croissance ([2]; Conc. 0,5 % (vol/vol), 5 min) was “+” and the croissance ([2]; Conc. 0,05 % (vol/vol), 15 min) was “+”. For the same compound, the croissance ([2]; Conc. 0,5 % (vol/vol), 15 min) was “+”, the croissance ([2]; Conc. 0,05 % (vol/vol), 30 min) was “+” and the croissance ([2]; Conc. 0,5 % (vol/vol), 30 min) was “+”. For the same compound, the croissance ([2]; Conc. 0,05 % (vol/vol), 60 min) was “+”, the croissance ([2]; Conc. 0,5 % (vol/vol), 60 min) was “+” and the croissance ([2]; Conc. 1 % (vol/vol), 1 min) was “+”. For the same compound, the croissance ([2]; Conc. 1 % (vol/vol), 3 min) was “+”, the croissance ([2]; Conc. 1 % (vol/vol), 5 min) was “+” and the croissance ([2]; Conc. 1 % (vol/vol), 15 min) was “+”. The croissance ([2]; Conc. 1 % (vol/vol), 30 min) was “+”, the croissance ([2]; Conc. 1 % (vol/vol), 60 min) was “-” and the croissance ([2]; Conc. 5 % (vol/vol), 1 min) was “+”. For the same compound, the croissance ([2]; Conc. 5 % (vol/vol), 3 min) was “+”, the croissance ([2]; Conc. 5 % (vol/vol), 5 min) was “+” and the croissance ([2]; Conc. 5 % (vol/vol), 15 min) was “+”. The croissance ([2]; Conc. 5 % (vol/vol), 30 min) was “-”, the croissance ([2]; Conc. 5 % (vol/vol), 60 min) was “-” and the croissance ([2]; Conc. 10 % (vol/vol), 1 min) was “+”. For the same compound, the croissance ([2]; Conc. 10 % (vol/vol), 3 min) was “+”, the croissance ([2]; Conc. 10 % (vol/vol), 5 min) was “+” and the croissance ([2]; Conc. 10 % (vol/vol), 15 min) was “+”. The croissance ([2]; Conc. 10 % (vol/vol), 30 min) was “-”, the croissance ([2]; Conc. 10 % (vol/vol), 60 min) was “-” and the croissance ([2]; Conc. 25 % (vol/vol), 1 min) was “+”. For the same compound, the croissance ([2]; Conc. 25 % (vol/vol), 3 min) was “+”, the croissance ([2]; Conc. 25 % (vol/vol), 5 min) was “+” and the croissance ([2]; Conc. 25 % (vol/vol), 15 min) was “-”. For the same compound, the croissance ([2]; Conc. 25 % (vol/vol), 30 min) was “-” and the croissance ([2]; Conc. 25 % (vol/vol), 60 min) was “-”.
